From patent US5849690A, “Anti-aggregatory peptides” (SmithKline Beecham Corporation, priority 1992, dated 1998) come the findings set out here.

Positions of bridges follow the written chain, without caps; N, C: chain ends. Non-standard residues stand in square brackets, D forms with d. Residues, ends and D or L forms follow the SMILES beside them. Bounds are passed on as bounds.

This experiment has as its target T1, Platelet rich plasma, PRP (Canis lupus familiaris, UniProt A0A8I3N5G5+A0A8I3PMU9).
T1 sequence (A0A8I3N5G5 1-1047): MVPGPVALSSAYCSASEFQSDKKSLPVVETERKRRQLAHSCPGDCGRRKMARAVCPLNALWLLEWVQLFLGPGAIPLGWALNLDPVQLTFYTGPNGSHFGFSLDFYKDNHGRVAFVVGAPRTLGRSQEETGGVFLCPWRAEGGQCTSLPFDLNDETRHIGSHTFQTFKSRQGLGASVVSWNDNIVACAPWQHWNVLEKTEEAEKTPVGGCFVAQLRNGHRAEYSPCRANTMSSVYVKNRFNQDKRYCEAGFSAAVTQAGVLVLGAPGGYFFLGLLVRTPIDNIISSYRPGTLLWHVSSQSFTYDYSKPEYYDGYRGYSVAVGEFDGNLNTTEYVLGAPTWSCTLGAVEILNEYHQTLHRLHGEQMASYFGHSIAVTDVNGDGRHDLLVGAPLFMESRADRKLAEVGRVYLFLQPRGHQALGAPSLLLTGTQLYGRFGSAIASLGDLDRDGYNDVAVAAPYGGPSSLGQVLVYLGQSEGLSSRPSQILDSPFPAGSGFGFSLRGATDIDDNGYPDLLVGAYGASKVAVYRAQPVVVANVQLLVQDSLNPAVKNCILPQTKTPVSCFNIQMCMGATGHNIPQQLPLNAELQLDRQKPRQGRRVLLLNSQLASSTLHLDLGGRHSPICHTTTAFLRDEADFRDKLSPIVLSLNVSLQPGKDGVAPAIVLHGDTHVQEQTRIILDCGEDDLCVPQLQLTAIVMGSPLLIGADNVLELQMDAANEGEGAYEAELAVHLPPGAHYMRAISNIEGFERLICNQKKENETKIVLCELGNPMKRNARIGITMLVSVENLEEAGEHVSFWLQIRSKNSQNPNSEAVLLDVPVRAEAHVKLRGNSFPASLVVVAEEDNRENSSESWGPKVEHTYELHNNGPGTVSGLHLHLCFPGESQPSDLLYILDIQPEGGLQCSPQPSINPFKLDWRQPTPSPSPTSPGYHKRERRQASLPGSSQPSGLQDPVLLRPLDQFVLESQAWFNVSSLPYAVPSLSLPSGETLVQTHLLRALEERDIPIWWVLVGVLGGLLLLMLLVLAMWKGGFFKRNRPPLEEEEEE
T1 sequence (A0A8I3PMU9 1-919): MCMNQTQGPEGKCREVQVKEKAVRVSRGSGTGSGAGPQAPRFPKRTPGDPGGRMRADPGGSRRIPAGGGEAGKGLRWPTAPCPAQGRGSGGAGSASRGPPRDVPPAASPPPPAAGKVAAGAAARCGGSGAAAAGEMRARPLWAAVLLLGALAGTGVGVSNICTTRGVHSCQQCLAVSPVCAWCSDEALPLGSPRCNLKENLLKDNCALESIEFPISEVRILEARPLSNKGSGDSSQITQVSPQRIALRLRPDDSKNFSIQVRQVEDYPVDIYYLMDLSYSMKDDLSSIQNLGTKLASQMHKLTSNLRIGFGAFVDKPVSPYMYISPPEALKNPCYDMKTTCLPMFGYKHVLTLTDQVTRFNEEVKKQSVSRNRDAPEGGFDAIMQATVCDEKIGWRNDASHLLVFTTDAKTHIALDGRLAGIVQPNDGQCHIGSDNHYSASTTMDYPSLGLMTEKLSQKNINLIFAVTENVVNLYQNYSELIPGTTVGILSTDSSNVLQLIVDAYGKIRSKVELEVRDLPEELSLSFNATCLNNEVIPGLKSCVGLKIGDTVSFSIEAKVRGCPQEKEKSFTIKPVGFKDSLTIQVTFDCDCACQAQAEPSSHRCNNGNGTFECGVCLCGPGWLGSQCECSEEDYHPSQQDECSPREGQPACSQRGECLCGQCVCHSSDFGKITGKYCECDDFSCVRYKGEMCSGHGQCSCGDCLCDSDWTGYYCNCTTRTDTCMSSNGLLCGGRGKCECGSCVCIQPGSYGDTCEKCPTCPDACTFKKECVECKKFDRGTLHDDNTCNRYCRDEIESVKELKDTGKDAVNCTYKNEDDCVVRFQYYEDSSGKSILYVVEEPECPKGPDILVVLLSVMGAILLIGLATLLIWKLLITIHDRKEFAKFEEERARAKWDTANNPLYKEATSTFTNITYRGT
The experiment in a line: Inhibition of platelet aggregation, PRP/ADP. As to conditions: dog platelet rich plasma, 2 μM ADP, peptide added 3 min. prior to agonist; read-out: Antiaggregatory Activity IC50, μM PRP/ADP. It is filed as cell-based. The protocol:
Blood was collected (citrated to prevent coagulation) from, naive, adult mongrel dogs. Platelet rich plasma, PRP, was prepared by centrifugation at 150×g for 10 min. at room temperature. Washed platelets were prepared by centrifuging PRP at 800×g for 10 min. The cell pellet thus obtained was washed twice in Tyrode's buffer (pH 6.5) without Ca^2+ and resuspended in Tyrode's buffer (pH 7.4) containing 1.8 mM Ca^2+ at […]. Peptides were added 3 min. prior to the agonist in all assays of platelet aggregation. Final agonist concentrations were 0.1 unit/ml thrombin and 2 μM ADP (Sigma). Aggregation was monitored in a Chrono-Log Lumi-Aggregometer. Light transmittance 5 min. after addition of the agonist was used to calculate percent aggregation according to the formula % aggregation=[(90-CR).div.(90-10)]×100, where CR is the chart reading, 90 is the baseline, and 10 is the PRP blank reading. IC50 's were determined by plotting [% inhibition of aggregation] vs. [concentration of peptide]. Peptides were assayed at 200 μM and diluted sequentially by a factor of 2 to establish a suitable dose response curve.
In the case of `CCN=C(NCC)NCCC[C@@H]1NC(=O)[C@@H](NC(C)=O)CSSC(C)(C)[C@@H](C(N)=O)NC(=O)[C@H](CC(=O)O)NC(=O)CNC1=O` [Example 24, N^α -Ac-Cyclo(S,S)Cys-(Et2)Arg-Gly-Asp-Pen-NH2] (HELM PEPTIDE1{[ac].C.[CCN=C(NCC)NCCC[C@H](N[*:1])C(=O)[*:2]].G.D.[Pen].[am]}$PEPTIDE1,PEPTIDE1,2:R3-6:R3$$$V2.0), the IC50 was determined as 81.7 µM.
With “Gly-MeArg-Gly-Asp-Ser-NH2 (RGDS; N-terminal Gly-Me; C-terminal amide; printed: Arg-Gly-Asp-Ser-) [Example 39]” the figure was 12 µM; with `CC(=O)N[C@H]1CSSC(C)(C)[C@@H](C(N)=O)NC(=O)[C@H](CC(=O)O)NC(=O)CNC(=O)[C@H](CCCCN)NC1=O` [Example 12, N^α -Ac-Cyclo(S,S)Cys-Lys-Gly-Asp-Pen-NH2] (HELM PEPTIDE1{[ac].C.K.G.D.[Pen].[am]}$PEPTIDE1,PEPTIDE1,2:R3-6:R3$$$V2.0), 55.3 µM.
With “N^α -Ac-Cyclo(S,S)Cys-MeArg-Gly-Asp-Cys-NH2 (Ac-C[MeArg]GDC-NH2; disulfide N-5) [Example 8]” the figure was 0.91 µM; with `CC(=O)N[C@H]1CSSC(C)(C)[C@@H](C(N)=O)NC(=O)[C@H](CC(=O)O)NC(=O)CNC(=O)[C@H](CCCCNC(=N)N)NC1=O` [Example 13, N^α -Ac-Cyclo(S,S)Cys-HArg-Gly-Asp-Pen-NH2] (HELM PEPTIDE1{[ac].C.[N=C(N)NCCCC[C@H](N[*:1])C(=O)[*:2]].G.D.[Pen].[am]}$PEPTIDE1,PEPTIDE1,2:R3-6:R3$$$V2.0), 3.85 µM; with `CCNC(=O)[C@H](CO)NC(=O)[C@H](CC(=O)O)NC(=O)CNC(=O)[C@H](CCCN=C(N)N)NC(C)=O` [Example 15, N^α -Ac-Arg-Gly-Asp-Ser-NHEt] (HELM PEPTIDE1{[ac].R.G.D.S.[CCN[*:1]]}$$$$V2.0), above 200 µM.
With `CC(=O)N[C@H]1CSSC(C)(C)[C@@H](C(N)=O)NC(=O)[C@H](CC(=O)O)NC(=O)CNC(=O)[C@@H](CCCNC(=N)N)NC1=O` [Example 17, N^α -Ac-Cyclo(S,S)Cys-D-Arg-Gly-Asp-Pen-NH2] (HELM PEPTIDE1{[ac].C.[dR].G.D.[Pen].[am]}$PEPTIDE1,PEPTIDE1,2:R3-6:R3$$$V2.0) the figure was 4.1 µM; with `CC(=O)N[C@@H](CCCN=C(N)N)C(=O)NCC(=O)N[C@@H](CC(=O)O)C(=O)N[C@H](C(N)=O)C(C)C` [Example 31, N^α -Ac-Arg-Gly-Asp-Val-NH2] (Ac-RGDV-NH2), 55.5 µM; with `CCNC(=O)[C@H]1NC(=O)[C@H](CC(=O)O)NC(=O)CNC(=O)[C@H](CCCNC(=N)N)NC(=O)[C@@H](NC(C)=O)CSSC1(C)C` [Example 16, N^α -Ac-Cyclo(S,S)Cys-Arg-Gly-Asp-Pen-NHEt] (HELM PEPTIDE1{[ac].C.R.G.D.[Pen].[CCN[*:1]]}$PEPTIDE1,PEPTIDE1,2:R3-6:R3$$$V2.0), 9.5 µM.
Turning to `CN(C=O)[C@@H](CCCNC(=N)N)C(=O)NCC(=O)N[C@@H](CC(=O)O)C(=O)N[C@@H](CO)C(N)=O` [Example 38, N^α -Formyl-MeArg-Gly-Asp-Ser-NH2] (HELM PEPTIDE1{[O=C[*:2]].[meR].G.D.S.[am]}$$$$V2.0), the IC50 came to 6.9 µM.
With `CC(=O)N[C@@H](CCCCNC(=N)N)C(=O)NCC(=O)N[C@@H](CC(=O)O)C(=O)N[C@@H](CO)C(N)=O` [Example 36, Ac-HArg-Gly-Asp-Ser-NH2] (HELM PEPTIDE1{[ac].[N=C(N)NCCCC[C@H](N[*:1])C(=O)[*:2]].G.D.S.[am]}$$$$V2.0) the figure was 68.2 µM.
Next, `CC(=O)N[C@H]1CSSC(C)(C)[C@@H](C(N)=O)NC(=O)[C@H](CC(=O)O)NC(=O)CNC(=O)[C@H](CCCNC(=N)N)NC1=O` [Example 10, N^α -Ac-Cyclo(S,S)Cys-Arg-Gly-Asp-Pen-NH2] (HELM PEPTIDE1{[ac].C.R.G.D.[Pen].[am]}$PEPTIDE1,PEPTIDE1,2:R3-6:R3$$$V2.0): 4.12 µM.
`CC(=O)N[C@H]1CSSC(C)(C)[C@@H](C(N)=O)NC(=O)[C@H](CO)NC(=O)[C@H](CC(=O)O)NC(=O)CNC(=O)[C@H](CCCNC(=N)N)N(C)C1=O` [Example 5, N^α -Ac-Cyclo(S,S)Cys-MeArg-Gly-Asp-Ser-Pen-NH2] (HELM PEPTIDE1{[ac].C.[meR].G.D.S.[Pen].[am]}$PEPTIDE1,PEPTIDE1,2:R3-7:R3$$$V2.0): the IC50 amounted to 1.3 µM.
Next, “Ac-RRGDF-NH2 [Example 33, N^α -Ac-Arg-Arg-Gly-Asp-Phe-NH2]”: 113 µM; `CC(=O)N[C@H]1CSSC(C)(C)[C@H](C(N)=O)NC(=O)[C@H](CC(=O)O)NC(=O)CNC(=O)[C@H](CCCNC(=N)N)NC1=O` [Example 11, N^α -Ac-Cyclo(S,S)Cys-Arg-Gly-Asp-D-Pen-NH2] (HELM PEPTIDE1{[ac].C.R.G.D.[CC(C)(S[*:3])[C@@H](N[*:1])C(=O)[*:2]].[am]}$PEPTIDE1,PEPTIDE1,2:R3-6:R3$$$V2.0): 20.3 µM.
With `CC(=O)N[C@H]1CSSC(C)(C)[C@@H](C(N)=O)NC(=O)[C@H](CC(=O)O)NC(=O)CNC(=O)[C@H](CCCNC(=N)N)N(C)C1=O` [Example 14, N^α -Ac-Cyclo(S,S)Cys-MeArg-Gly-Asp-Pen-NH2] (HELM PEPTIDE1{[ac].C.[meR].G.D.[Pen].[am]}$PEPTIDE1,PEPTIDE1,2:R3-6:R3$$$V2.0) the figure was 0.26 µM.
With `CC(=O)N[C@H]1CSSC[C@@H](C(N)=O)NC(=O)[C@H](CO)NC(=O)[C@H](CC(=O)O)NC(=O)CNC(=O)[C@H](CCCNC(=N)N)NC1=O` [Example 3, N^α -Ac-Cyclo(S,S) Cys-Arg-Gly-Asp-Ser-Cys-NH2] (HELM PEPTIDE1{[ac].C.R.G.D.S.C.[am]}$PEPTIDE1,PEPTIDE1,2:R3-7:R3$$$V2.0) the figure was 32.7 µM.
Take `CC(=O)N[C@H]1CSSC[C@@H](C(N)=O)NC(=O)[C@H](Cc2ccc(O)cc2)NC(=O)[C@H](CC(=O)O)NC(=O)CNC(=O)[C@H](CCCNC(=N)N)N(C)C1=O` [Example 18, N^α -Ac-Cyclo(S,S)Cys-MeArg-Gly-Asp-Tyr-Cys-NH2] (HELM PEPTIDE1{[ac].C.[meR].G.D.Y.C.[am]}$PEPTIDE1,PEPTIDE1,2:R3-7:R3$$$V2.0): the IC50 came out at 1.49 µM.
In the case of `CN[C@@H](CCCNC(=N)N)C(=O)NCC(=O)N[C@@H](CC(=O)O)C(=O)N[C@@H](CO)C(N)=O` [Example 37, N^α -MeArg-Gly-Asp-Ser-NH2] (HELM PEPTIDE1{[meR].G.D.S.[am]}$$$$V2.0), the IC50 was 66.3 µM.
